Our source for the IC50 values is patent US9725434B2, “Hydroxy-substituted orexin receptor antagonists” (MERCK SHARP & DOHME CORP., priority 2013, dated 2017).

The target in experiment [1] is human orexin-2 receptor (hOX2R) (Homo sapiens (Human), UniProt O43614). In words: FLIPR Ca2+ Flux Assay, hOX2R. Format: cell-based. Particulars: CHO cells expressing hOX2R; agonist 70 pM Ala-6,12 orexin-A. The procedure: In a typical experiment the OX1 and OX2 receptor antagonistic activity of the compounds of the present invention was determined in accordance with the following experimental method. For intracellular calcium measurements, Chinese hamster ovary (CHO) cells expressing the rat orexin-1 receptor or the human orexin-2 receptor, are grown in Iscove's modified DMEM containing 2 mM L-glutamine, […], 1% hypoxanthine-thymidine supplement, 100 U/ml penicillin, 100 μg/ml streptomycin and 10% heat-inactivated fetal calf serum (FCS). The cells are seeded at 20,000 cells/well into Becton-Dickinson black 384-well clear bottom sterile plates coated with poly-D-lysine. All reagents were from GIBCO-Invitrogen Corp. The seeded plates are incubated overnight at 37° C. and 5% CO2. Ala-6,12 human orexin-A as the agonist is prepared as a 1 mM stock solution in 1% bovine serum albumin (BSA) and diluted in assay buffer (HBSS containing 20 mM HEPES, 0.1% BSA and 2.5 mM probenecid, pH7.4) for use in the assay at a final concentration of 70 pM. Test compounds are prepared as 10 mM stock solution in DMSO, then diluted in 384-well plates, first in DMSO, then assay buffer. On the day of the assay, cells are washed 3 times with 100 μl assay buffer and then incubated for 60 min (37° C., 5% CO2) in 60 μl assay buffer containing 1 μM Fluo-4AM ester, 0.02% pluronic acid, and 1% BSA. The dye loading solution is then aspirated and cells are washed 3 times with 100 μl assay buffer. 30 μl of that same buffer is left in each well. Within the Fluorescent Imaging Plate Reader (FLIPR, Molecular Devices), test compounds are added to the plate in a volume of 25 μl, incubated for 5 min and finally 25 μl of agonist is added. Fluorescence is measured for each well at 1 second intervals for 5 minutes and the height of each fluorescence peak is compared to the height of the fluorescence peak induced by 70 pM Ala-6,12 orexin-A with buffer in place of antagonist. […] Alternatively, compound potency can be assessed by a radioligand binding assay (described in Bergman et. al. Bioorg. Med. Chem. Lett. 2008, 18, 1425-1430) in which the inhibition constant (Ki) is determined in membranes prepared from CHO cells expressing either the OX1 or OX2 receptor. The intrinsic orexin receptor antagonist activity of a compound which may be used in the present invention may be determined by these assays.
human orexin-2 receptor (hOX2R), sequence (O43614 whole entry): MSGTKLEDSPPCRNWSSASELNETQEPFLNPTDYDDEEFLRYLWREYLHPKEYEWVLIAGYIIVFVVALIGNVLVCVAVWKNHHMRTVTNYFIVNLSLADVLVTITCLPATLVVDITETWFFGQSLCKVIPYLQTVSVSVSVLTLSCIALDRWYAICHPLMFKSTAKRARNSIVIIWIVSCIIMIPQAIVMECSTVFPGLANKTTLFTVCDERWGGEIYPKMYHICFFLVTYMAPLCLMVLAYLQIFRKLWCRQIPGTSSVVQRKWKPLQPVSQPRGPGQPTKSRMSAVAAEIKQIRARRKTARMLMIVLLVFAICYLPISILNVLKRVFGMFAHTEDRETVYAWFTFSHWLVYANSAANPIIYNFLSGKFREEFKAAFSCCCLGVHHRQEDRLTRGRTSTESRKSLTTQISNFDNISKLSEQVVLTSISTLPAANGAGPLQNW
(§1) Chinese hamster ovary (CHO) cells expressing the human orexin-1 receptor (hOX1R) or the human orexin-2 receptor (hOX2R) were grown in Iscove's modified DMEM containing 2 mM L-glutamine, […], 1% hypoxanthine-thymidine supplement, 100 U/ml penicillin, 100 μg/ml streptomycin and 10% heat-inactivated fetal calf serum (FCS). The cells were seeded at 20,000 cells/well into Becton-Dickinson black 384-well clear bottom sterile plates coated with poly-D-lysine. All reagents were from GIBCO-Invitrogen Corp. The seeded plates were incubated overnight at 37° C. and 5% CO2. Ala-6,12 human orexin-A, used as the agonist, was prepared as a 1 mM stock solution in 1% bovine serum albumin (BSA) and diluted in assay buffer (HBSS containing 20 mM HEPES, 0.1% BSA and 2.5 mM probenecid, pH7.4) for use in the assay at a final concentration of 70 pM. Test compounds were prepared as 10 mM stock solution in DMSO, then diluted in 384-well plates, first in DMSO, then assay buffer.
On the day of the assay, cells were washed 3× with 100 μl assay buffer and then incubated for 60 minutes (37° C., 5% CO2) in 60 μl assay buffer containing 1 μM Fluo-4AM ester, 0.02% pluronic acid, and 1% BSA. The dye loading solution was then aspirated and cells were washed 3× with 100 μl assay buffer.

The target in experiment [2] is human orexin-1 receptor (hOX1R) (Homo sapiens, UniProt O43613). Kind of experiment: FLIPR Ca2+ Flux Assay, hOX1R. Format: cell-based. Particulars: CHO cells expressing hOX1R; agonist 70 pM Ala-6,12 orexin-A. The procedure: as §1
On the day of the assay, cells were washed 3× with 100 μl assay buffer and then incubated for 60 minutes (37° C., 5% CO2) in 60 μl assay buffer containing 1 μM Fluo-4AM ester, 0.02% pluronic acid, and 1% BSA. The dye loading solution was then aspirated and cells were washed 3× with 100 μl assay buffer. 30 μl of that same buffer was left in each well. Within the Fluorescent Imaging Plate Reader (FLIPR, Molecular Devices), test compounds were added to the plate in a volume of 25 μl, incubated for 5 minutes, and then 25 μl of agonist was added. Fluorescence was measured for each well at 1 second intervals for 5 minutes, and the height of each fluorescence peak was compared to the height of the fluorescence peak induced by 70 pM of Ala-6,12 orexin-A with buffer in place of test compound.

For `C[C@@H]1CC[C@@H](Oc2cccc(C(C)(C)O)c2)CN1C(=O)c1ccsc1-n1nccn1` [Example 37, 2-(3-{[(3R,6R)-6-Methyl-1-{[2-(2H-1,2,3-triazol-2-yl)thiophen-3-yl]carbonyl}piperidin-3-yl]oxy}phenyl)propan-2-ol], the concentration for half-maximal inhibition (IC50) in experiment [1] worked out at 45 nM; in experiment [2] it was 10000 nM.
“(1S)-6-{[(3R,6R)-6-Methyl-1-{[2-(2H-1,2,3-triazol-2-yl)phenyl]carbonyl}piperidin-3-yl]oxy}-2,3-dihydro-1H-inden-1-ol [Example 28]”: the IC50 in experiment [2] amounted to 10000 nM.
In the case of `C[C@@H]1CC[C@@H](Oc2cc(C3(O)CCC3)ccn2)CN1C(=O)c1ccccc1-n1nccn1` [Example 8, 1-(2-{[(3R,6R)-6-methyl-1-{[2-(2H-1,2,3-triazol-2-yl)phenyl]carbonyl}piperidin-3-yl]oxy}pyridin-4-yl)cyclobutanol], the figures for the IC50 in experiment [1] and in experiment [2] were 41 nM and 1520 nM, respectively.
For `C[C@@H]1CC[C@@H](Oc2cccc(C(C)(O)C3CCC3)c2)CN1C(=O)c1ccccc1-n1nccn1` (stereo partly drawn) [Example 17, 1-Cyclobutyl-1-(3-{[(3R,6R)-6-methyl-1-{[2-(2H-1,2,3-triazol-2-yl)phenyl]carbonyl}piperidin-3-yl]oxy}phenyl)ethanol], the figures for the IC50 in experiment [1] and in experiment [2] were 82 nM and 8690 nM, respectively.
Regarding `C[C@@H]1CC[C@@H](Oc2cc(C(C)(C)O)ccn2)CN1C(=O)c1ccccc1-n1nccn1` [Example 4, 2-(2-{[(3R,6R)-6-Methyl-1-{[2-(2H-1,2,3-triazol-2-yl)phenyl]carbonyl}piperidin-3-yl]oxy}pyridin-4-yl)propan-2-ol], the results for the IC50 in experiment [1] and in experiment [2] were 20 nM and 996 nM, respectively.
Take `C[C@@H]1CC[C@@H](Oc2cc([C@](C)(O)C3CC3)ccn2)CN1C(=O)c1ccccc1-n1nccn1` [Example 11, (1R)-1-cyclopropyl-1-(2-{[(3R,6R)-6-methyl-1-{[2-(2H-1,2,3-triazol-2-yl)phenyl]carbonyl}piperidin-3-yl]oxy}pyridin-4-yl)ethanol]: the figures for the IC50 in experiment [1] and in experiment [2] were 14 nM and 297 nM, respectively.
Taken in the same sequence, the figures for `C[C@@H]1CC[C@@H](Oc2nccc(C(C)(C)O)c2F)CN1C(=O)c1ccccc1-n1nccn1` [Example 21, 2-(3-Fluoro-2-{[(3R,6R)-6-methyl-1-{[2-(2H-1,2,3-triazol-2-yl)phenyl]carbonyl}piperidin-3-yl]oxy}pyridin-4-yl)propan-2-ol] were 6 nM and 259 nM.
As for `C[C@@H]1CC[C@@H](Oc2cccc(C(C)(O)C(F)F)c2)CN1C(=O)c1ccccc1-n1nccn1` (stereo partly drawn) [Example 36, 1,1-difluoro-2-(3-{[(3R,6R)-6-methyl-1-{[2-(2H-1,2,3-triazol-2-yl)phenyl]carbonyl}piperidin-3-yl]oxy}phenyl)propan-2-ol], the IC50 in experiment [1] was found to be 18 nM; in experiment [2], 7280 nM.
Taken in the same sequence, the figures for `C[C@@H]1CC[C@@H](Oc2ccc3c(c2)C(C)(O)CC3)CN1C(=O)c1ccccc1-n1nccn1` (stereo partly drawn) [Example 33, 1-Methyl-6-{[(3R,6R)-6-methyl-1-{[2-(2H-1,2,3-triazol-2-yl)phenyl]carbonyl}piperidin-3-yl]oxy}-2,3-dihydro-1H-inden-1-ol] were 23 nM and 742 nM.
The matching figures for `C[C@@H]1CC[C@@H](Oc2cc([C@@](C)(O)C3CC3)ccn2)CN1C(=O)c1ccccc1-n1nccn1` [Example 12, (1S)-1-cyclopropyl-1-(2-{[(3R,6R)-6-methyl-1-{[2-(2H-1,2,3-triazol-2-yl)phenyl]carbonyl}piperidin-3-yl]oxy}pyridin-4-yl)ethanol]: 13 nM and 241 nM.
In the case of `C[C@@H]1CC[C@@H](Oc2cccc(C(C)(O)C(F)(F)F)c2)CN1C(=O)c1ccccc1-n1nccn1` (stereo partly drawn) [Example 5, 1,1,1-Trifluoro-2-(3-{[(3R,6R)-6-methyl-1-{[2-(2H-1,2,3-triazol-2-yl)phenyl]carbonyl}piperidin-3-yl]oxy}phenyl)propan-2-ol], the IC50 in experiment [1] came to 89 nM; in experiment [2] it was 5540 nM.
Consider `C[C@@H]1CC[C@@H](Oc2cccc(C(C)(C)O)c2)CN1C(=O)c1ccccc1-n1nccn1` [Example 6, 2-(3-{[(3R,6R)-6-Methyl-1-{[2-(2H-1,2,3-triazol-2-yl)phenyl]carbonyl}piperidin-3-yl]oxy}phenyl)propan-2-ol], for which the IC50 in experiment [1] is 32 nM; in experiment [2] it was 10000 nM.
“(1R)-6-{[(3R,6R)-6-Methyl-1-{[2-(2H-1,2,3-triazol-2-yl)phenyl]carbonyl}piperidin-3-yl]oxy}-2,3-dihydro-1H-inden-1-ol [Example 27]”: the IC50 in experiment [2] is 1340 nM. This counts as single-digit micromolar.
In the case of “(1R)-1-Methyl-6-{[(3R,6R)-6-methyl-1-{[2-(2H-1,2,3-triazol-2-yl)phenyl]carbonyl}piperidin-3-yl]oxy}-2,3-dihydro-1H-inden-1-ol [Example 34]”, the figures for the IC50 in experiment [1] and in experiment [2] were 112 nM and 1170 nM, respectively.
Taken in the same sequence, the figures for `C[C@@H]1CC[C@@H](Oc2cccc(C(C)(O)C3CC3)c2)CN1C(=O)c1ccccc1-n1nccn1` (stereo partly drawn) [Example 15, 1-Cyclopropyl-1-(3-{[(3R,6R)-6-methyl-1-{[2-(2H-1,2,3-triazol-2-yl)phenyl]carbonyl}-piperidin-3-yl]oxy}phenyl)ethanol] were 36 nM and 2100 nM.
With `CCC(C)(O)c1ccnc(O[C@@H]2CC[C@@H](C)N(C(=O)c3ccccc3-n3nccn3)C2)c1` (stereo partly drawn) [Example 9, 2-(2-{[(3R,6R)-6-Methyl-1-{[2-(2H-1,2,3-triazol-2-yl)phenyl]carbonyl}piperidin-3-yl]oxy}pyridin-4-yl)butan-2-ol], the IC50 stood at 14 nM in experiment [1] and 436 nM in experiment [2].
For the molecule `C[C@@H]1CC[C@@H](Oc2cccc3c2CC[C@@H]3O)CN1C(=O)c1ccccc1-n1nccn1` [Example 26, (1S)-4-{[(3R,6R)-6-Methyl-1-{[2-(2H-1,2,3-triazol-2-yl)phenyl]carbonyl}piperidin-3-yl]oxy}-2,3-dihydro-1H-inden-1-ol], the results for the IC50 in experiment [1] and in experiment [2] were 25 nM and 1530 nM, respectively.
In the case of `C[C@@H]1CC[C@@H](Oc2cc(C(C)(C)O)ccc2F)CN1C(=O)c1ccccc1-n1nccn1` [Example 20, 2-(4-Fluoro-3-{[(3R,6R)-6-methyl-1-{[2-(2H-1,2,3-triazol-2-yl)phenyl]carbonyl}piperidin-3-yl]oxy}phenyl)propan-2-ol], the half-maximal inhibitory concentration (IC50) in experiment [1] stood at 354 nM; in experiment [2], 10000 nM.
On to `C[C@@H]1CC[C@@H](Oc2ccc3c(c2)C(O)CC3)CN1C(=O)c1ccccc1-n1nccn1` (stereo partly drawn) [Example 24, 6-{[(3R,6R)-6-Methyl-1-{[2-(2H-1,2,3-triazol-2-yl)phenyl]carbonyl}piperidin-3-yl]oxy}-2,3-dihydro-1H-inden-1-ol], for which the IC50 in experiment [2] was 2070 nM.
Consider `CC(O)c1cccc(O[C@@H]2CC[C@@H](C)N(C(=O)c3ccccc3-c3ncccn3)C2)c1` (stereo partly drawn) [Example 3, 1-[3-({(3R,6R)-6-Methyl-1-[(2-pyrimidin-2-ylphenyl)carbonyl]piperidin-3-yl}oxy)phenyl]ethanol], for which the IC50 in experiment [1] was 119 nM; in experiment [2], 4240 nM.
